The subject of one assay is IL-23p19. Briefly: LPS induced IL23p19 in THP-1 cells (with IFNγ primed) assay. It counts as cell-based, Human. As to conditions: THP-1 cells, IFNγ primed, LPS 1 ug/mL, 18 hours, 10 pt, read-out: IL23-p19 ELISA, THP1-IFNy, LPS, 10 pt EC50. In a few lines:
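Readout is secreted IL-23p19, quantified by chemiluminescent sandwich ELISA after 18 h LPS (1 ug/mL) stimulation of THP-1 cells that had been IFNγ-primed (50 ng/mL, ~18 h) and given compound 1 h beforehand at 37 °C. EC50 derived by curve fit; cytotoxicity tracked with Cell Titer Glo.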

A further assay relates to IL-23 (p19/p40). Briefly: IL23-p19 ELISA, Dendritic, LPS (compound screening using DC cells). It counts as cell-based, Human. As to conditions: PBMC-derived DC cells, IFNγ primed, LPS 1 μg/ml, 18 hours, 10 pt, read-out: IL23-p19 ELISA, Dendritic, LPS, 10 pt, EC50. In a few lines:
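IL-23 in supernatants quantified by sandwich ELISA (anti-p19 capture, biotinylated anti-p40 detection, chemiluminescent readout) after 18 h LPS (1 μg/ml) stimulation. Cells were monocyte-derived DCs (GM-CSF/IL-4, 7 d), IFNγ-primed 24 h and given compound 1 h before LPS; viability by CellTiter Glo.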

pEC50: −log10 of the molar value. Counter-ions that a name gives are not always drawn. Like-named read-outs stand apart in the source and are kept apart here.

Take `CCO[C@H]1CC[C@H](n2cc(NC(=O)c3ccc(-c4cn[nH]c4)o3)c(-c3ccccn3)n2)CC1` [Compound I-130, N-(1-((1r,4r)-4-ethoxycyclohexyl)-3-(pyridin-2-yl)-1H-pyrazol-4-yl)-5-(1H-pyrazol-4-yl)furan-2-carboxamide formate]: the pEC50 is 7.32 with IL-23p19 (Homo sapiens, THP-1, 18 h) and 7.64 with IL-23 (p19/p40) (Homo sapiens, 18 h).
For `CCO[C@@H]1CC[C@H](n2cc(NC(=O)c3ccc(-c4cn[nH]c4)o3)c(-c3ccccn3)n2)C1` [Compound I-132, N-(1-((1S,3R)-3-ethoxycyclopentyl)-3-(pyridin-2-yl)-1H-pyrazol-4-yl)-5-(1H-pyrazol-4-yl)furan-2-carboxamide formate], the pEC50 in the assay with IL-23p19 (Homo sapiens, THP-1, 18 h) is 7.09; in the assay on IL-23 (p19/p40) (formate), 6.99.
On to `CCO[C@@H]1CC[C@H](n2cc(NC(=O)c3ccc(-c4cn[nH]c4)o3)c(-c3ccccn3)n2)C1` [Compound I-133, N-(1-((1S,3R)-3-ethoxycyclopentyl)-3-(pyridin-2-yl)-1H-pyrazol-4-yl)-5-(1H-pyrazol-4-yl)furan-2-carboxamide], for which the pEC50 in the assay on IL-23p19 was 7.09; with IL-23 (p19/p40), 6.41.
With `O=C(Nc1cn([C@H]2CC[C@@H](O)C2)nc1-c1ccccn1)c1ccc(-c2cn[nH]c2)o1` [Compound I-134, N-(1-((1S,3R)-3-hydroxycyclopentyl)-3-(pyridin-2-yl)-1H-pyrazol-4-yl)-5-(1H-pyrazol-4-yl)furan-2-carboxamide formate], the pEC50 was 7.53 with IL-23p19 (Homo sapiens, THP-1, 18 h) and 7.04 in the assay with IL-23 (p19/p40) (Homo sapiens, 18 h).
Regarding `O=C(Nc1cn([C@H]2CC[C@H](O)C2)nc1-c1ccccn1)c1ccc(-c2cn[nH]c2)o1` [Compound I-136, N-(1-((1S,3S)-3-hydroxycyclopentyl)-3-(pyridin-2-yl)-1H-pyrazol-4-yl)-5-(1H-pyrazol-4-yl)furan-2-carboxamide formate], the pEC50 in the assay on IL-23p19 (Homo sapiens, THP-1, 18 h) was 7.35; in the assay with IL-23 (p19/p40) (Homo sapiens, 18 h), 7.06.
The matching figures for `CCO[C@H]1C[C@@H](n2cc(NC(=O)c3ccc(-c4cn[nH]c4)o3)c(-c3ccc(F)cn3)n2)C1` [Compound I-138, N-(1-((1s,3s)-3-ethoxycyclobutyl)-3-(5-fluoropyridin-2-yl)-1H-pyrazol-4-yl)-5-(1H-pyrazol-4-yl)furan-2-carboxamide formate]: 6.03 and 6.16.
For the compound `CCO[C@@H]1C[C@H](n2cc(NC(=O)c3ccc(-c4cn[nH]c4)o3)c(-c3ccccn3)n2)C1F` (stereo partly drawn) [Compound I-140, N-(1-((1S,3R)-3-ethoxy-2-fluorocyclobutyl)-3-(pyridin-2-yl)-1H-pyrazol-4-yl)-5-(1H-pyrazol-4-yl)furan-2-carboxamide formate], the pEC50 in the assay on IL-23p19 (Homo sapiens, THP-1, 18 h) is 6.10; with IL-23 (p19/p40) (Homo sapiens, 18 h), 6.65.
For `CCO[C@H]1C[C@@H](n2cc(NC(=O)c3ccc(-c4cn[nH]c4)o3)c(-c3ncccc3F)n2)C1` [Compound I-142, N-(1-((1s,3s)-3-ethoxycyclobutyl)-3-(3-fluoropyridin-2-yl)-1H-pyrazol-4-yl)-5-(1H-pyrazol-4-yl)furan-2-carboxamide formate], the pEC50 in the assay with IL-23p19 (Homo sapiens, THP-1, 18 h) was 7.16; with IL-23 (p19/p40) (Homo sapiens, 18 h), 7.58.
The like results for `CCO[C@H]1C[C@@H](n2cc(NC(=O)c3ccc(-c4cn[nH]c4)o3)c(-c3cccc(F)n3)n2)C1` [Compound I-144, N-(1-((1s,3s)-3-ethoxycyclobutyl)-3-(6-fluoropyridin-2-yl)-1H-pyrazol-4-yl)-5-(1H-pyrazol-4-yl)furan-2-carboxamide formate] were, in that order, 7.11 and 7.46.
As to `O=C(Nc1cn([C@H]2C[C@@H](OCC(F)(F)F)C2)nc1-c1ccccn1)c1ccc(-c2cn[nH]c2)o1` [Compound I-146, 5-(1H-pyrazol-4-yl)-N-(3-(pyridin-2-yl)-1-((1s,3s)-3-(2,2,2-trifluoroethoxy)cyclobutyl)-1H-pyrazol-4-yl)furan-2-carboxamide formate], the negative-log EC50 (pEC50) in the assay with IL-23p19 (Homo sapiens, THP-1, 18 h) is 6.83; with IL-23 (p19/p40) (Homo sapiens, 18 h), 6.43.
Turning to `CCO[C@H]1C[C@@H](n2cc(NC(=O)c3ccc(-c4cn[nH]c4)o3)c(-c3cc(F)ccn3)n2)C1` [Compound I-148, N-(1-((1s,3s)-3-ethoxycyclobutyl)-3-(4-fluoropyridin-2-yl)-1H-pyrazol-4-yl)-5-(1H-pyrazol-4-yl)furan-2-carboxamide formate], the pEC50 is 6.76 in the assay on IL-23p19 (Homo sapiens, THP-1, 18 h) and 6.96 with IL-23 (p19/p40) (Homo sapiens, 18 h).
Consider `O=C(Nc1cn([C@H]2C[C@@H](OCC(F)(F)F)C2)nc1-c1cccc(F)n1)c1ccc(-c2cn[nH]c2)o1` [Compound I-150, N-(3-(6-fluoropyridin-2-yl)-1-((1s,3s)-3-(2,2,2-trifluoroethoxy)cyclobutyl)-1H-pyrazol-4-yl)-5-(1H-pyrazol-4-yl)furan-2-carboxamide formate], for which the pEC50 in the assay on IL-23p19 (Homo sapiens, THP-1, 18 h) was 7.19; in the assay on IL-23 (p19/p40) (Homo sapiens, 18 h), 6.65.
The matching figures for `O=C(Nc1cn([C@H]2C[C@@H](OCC(F)(F)F)C2)nc1-c1ncccc1F)c1ccc(-c2cn[nH]c2)o1` [Compound I-152, N-(3-(3-fluoropyridin-2-yl)-1-((1s,3s)-3-(2,2,2-trifluoroethoxy)cyclobutyl)-1H-pyrazol-4-yl)-5-(1H-pyrazol-4-yl)furan-2-carboxamide formate]: 7.50 and 7.15.
`CCO[C@H]1C[C@@H](n2cc(NC(=O)c3ccc(-c4cn[nH]c4)o3)c(-c3nc(F)ccc3F)n2)C1` [Compound I-156, N-(3-(3,6-difluoropyridin-2-yl)-1-((1s,3s)-3-ethoxycyclobutyl)-1H-pyrazol-4-yl)-5-(1H-pyrazol-4-yl)furan-2-carboxamide]: the pEC50 is 7.23 in the assay with IL-23p19 (Homo sapiens, THP-1, 18 h) and 6.98 with IL-23 (p19/p40) (Homo sapiens, 18 h).
The like results for `CC(C)(O)Cn1cc(NC(=O)c2csc(-c3cn[nH]c3)n2)c(-c2ccccn2)n1` [II-1, N-(1-(2-hydroxy-2-methylpropyl)-3-(pyridin-2-yl)-1H-pyrazol-4-yl)-2-(1H-pyrazol-4-yl)thiazole-4-carboxamide] were, in that order, 6.89 and 6.11.
The matching figures for `CC(OC(=O)C(C)C)OC(=O)n1cc(-c2nc(C(=O)Nc3cn(C)nc3-c3ccccn3)cs2)cn1` (stereo not shown) [II-2, 1-(isobutyryloxy)ethyl 4-(4-((1-methyl-3-(pyridin-2-yl)-1H-pyrazol-4-yl)carbamoyl)thiazol-2-yl)-1H-pyrazole-1-carboxylate]: 6.71 and 6.53.
As to `CC(C)[C@H](NC(=O)OC(C)(C)C)C(=O)n1cc(-c2nc(C(=O)Nc3cn(C)nc3-c3ccccn3)cs2)cn1` [II-3, tert-butyl (S)-(3-methyl-1-(4-(4-((1-methyl-3-(pyridin-2-yl)-1H-pyrazol-4-yl)carbamoyl)thiazol-2-yl)-1H-pyrazol-1-yl)-1-oxobutan-2-yl)carbamate], the pEC50 with IL-23p19 (Homo sapiens, THP-1, 18 h) is 6.70; in the assay on IL-23 (p19/p40) (Homo sapiens, 18 h) it was 6.43.
The like results for `Cc1oc(=O)oc1Cn1cc(-c2nc(C(=O)Nc3cn(C)nc3-c3ccccn3)cs2)cn1` [II-4, 2-(1-((5-methyl-2-oxo-1,3-dioxol-4-yl)methyl)-1H-pyrazol-4-yl)-N-(1-methyl-3-(pyridin-2-yl)-1H-pyrazol-4-yl)thiazole-4-carboxamide] were, in that order, 7.06 and 6.51.
As to `Cn1cc(NC(=O)c2csc(-c3cnn(C(=O)OC4(C)CC4)c3)n2)c(-c2ccccn2)n1` [II-5, 1-methylcyclopropyl 4-(4-((1-methyl-3-(pyridin-2-yl)-1H-pyrazol-4-yl)carbamoyl)thiazol-2-yl)-1H-pyrazole-1-carboxylate], the negative logarithm of the EC50 (pEC50) in the assay with IL-23p19 (Homo sapiens, THP-1, 18 h) is 7.04; in the assay with IL-23 (p19/p40) (Homo sapiens, 18 h), 6.80.
With `COc1ccc(COCC(C)(C)OC(=O)n2cc(-c3nc(C(=O)Nc4cn(C)nc4-c4ccccn4)cs3)cn2)cc1` [II-6, 1-((4-methoxybenzyl)oxy)-2-methylpropan-2-yl 4-(4-((1-methyl-3-(pyridin-2-yl)-1H-pyrazol-4-yl)carbamoyl)thiazol-2-yl)-1H-pyrazole-1-carboxylate], the pEC50 with IL-23p19 (Homo sapiens, THP-1, 18 h) was 7.06; with IL-23 (p19/p40) (Homo sapiens, 18 h), 5.16.
The like results for `O=C(Nc1cn(C2CCOCC2)nc1-c1ccccn1)c1csc(-c2cn[nH]c2)n1` [II-10, 2-(1H-pyrazol-4-yl)-N-(3-(pyridin-2-yl)-1-(tetrahydro-2H-pyran-4-yl)-1H-pyrazol-4-yl)thiazole-4-carboxamide] were, in that order, 7.65 and 7.98.
With `CCO[C@H]1C[C@@H](n2cc(NC(=O)c3csc(-c4cn[nH]c4)n3)c(-c3ccccn3)n2)C1` [II-11, N-(1-((1,3-cis)-3-ethoxycyclobutyl)-3-(pyridin-2-yl)-1H-pyrazol-4-yl)-2-(1H-pyrazol-4-yl)thiazole-4-carboxamide], the pEC50 was 7.30 in the assay with IL-23p19 (Homo sapiens, THP-1, 18 h) and 7.21 in the assay on IL-23 (p19/p40) (Homo sapiens, 18 h).
The matching figures for `CCO[C@H]1C[C@H](n2cc(NC(=O)c3csc(-c4cn[nH]c4)n3)c(-c3ccccn3)n2)C1` [II-12, N-(1-((1,3-trans)-3-ethoxycyclobutyl)-3-(pyridin-2-yl)-1H-pyrazol-4-yl)-2-(1H-pyrazol-4-yl)thiazole-4-carboxamide]: 6.87 and 7.21.
